In brackets after ≈: the same amount, converted by molar mass. Where two headings read alike, the source gives them in different places. Marks after values point to notes of the source that are not given here. Bridge positions count the residues as written; N and C are the ends. Square brackets hold non-standard residues; d marks the D form. Peptide text beside a SMILES is read from it. d(aThr) = C[C@@H](O)[C@@H](N)C(=O)O; Dhb = C/C=C(\N)C(=O)O

In one assay the test system is L. monocytogenes 677. Put plainly: microbe, parasite or virus in culture. The format is cell-based, Listeria monocytogenes. The procedure: (§1) To evaluate the antimicrobial potential of all samples, the MICs for E. coli ATCC® 10536™, S. aureus ATCC® 6538™, S. aureus ATCC® 6538p™, methicillin-resistant S. aureus (MRSA), macrolide-resistant S. aureus ([…]), quinolone-resistant S. aureus (QRSA), vancomycin-resistant S. aureus (VRSA), S. epidermidis RP206 [7], S. xylosus MB 5209 [77] were determined by the liquid inhibition assay. Briefly, the bacterial strains were inoculated in 3 mL of liquid Mueller–Hinton broth (MHB) (HiMedia, Einhausen, Germany) in sterile bacteriological tubes and incubated in agitation at 37 °C until they reached the turbidity of 0.5 McFarland. Different from the remaining pathogens, L. monocytogenes MB 677 [79] was diluted in the Trypticasein soy broth (TSB) medium with an additional 0.6% yeast extract. Finally, serial dilutions of the inoculum were performed to obtain a final bacterial concentration of about 5 × 10^5 CFU/mL. Then, 4 µL of each sample was added into a 96-well microtiter plate containing 200 µL of MH medium. After being serially diluted using MH medium, 100 µL of bacterial suspension was inoculated into the broth (~5 × 10^4 CFU/well) and incubated statically for 18 h at 37 °C. DMSO was used as a control to determine the effect of solvent on cell growth. Vancomycin, erythromycin, and ampicillin were used as positive controls.

For assay [1], the system named is S. aureus vancomycin-resistant. Put plainly: Liquid inhibition assay (MIC). Format: cell-based, Staphylococcus aureus. The following applies: vancomycin-resistant S. aureus (VRSA), 96-well, MH medium, ~5 × 10^4 CFU/well, 18 h at 37 °C, absorbance at 600 nm. The procedure:
as §1

For a further assay, the system named is S. xilosus MB5209. Put plainly: microbe, parasite or virus in culture. The format is cell-based, S. xylosus. The procedure:
as §1

A further assay concerns E. coli ATCC 10536. Put plainly: Liquid inhibition assay (MIC). The following applies: Gram-negative E. coli ATCC 10536. Format: cell-based, Escherichia coli. As to the method:
as §1

The test system of a further assay is S. aureus 6538. Put plainly: microbe, parasite or virus in culture. Format: cell-based, Staphylococcus aureus. As to the method:
as §1

Assay [2] relates to S. aureus methicillin-resistant. Description: microbe, parasite or virus in culture. The format is cell-based, Staphylococcus aureus. The procedure:
as §1

Assay [3] deals with S. aureus quinolone-resistant. Put plainly: microbe, parasite or virus in culture. Format: cell-based, Staphylococcus aureus. As to the method: as §1
The test system of assay [4] is S. aureus macrolide-resistant. Description: microbe, parasite or virus in culture. The format is cell-based, Staphylococcus aureus. The procedure: as §1
Another assay has as its system S. aureus 6538p. Description: microbe, parasite or virus in culture. Format: cell-based, Staphylococcus aureus. As to the method:
as §1

The test system of the next assay is S. epidermidis RP206. Format: cell-based. The following applies: RP206, 18 h. The procedure:
as §1

`CC1(C)S[C@@H]2[C@H](NC(=O)[C@H](N)c3ccccc3)C(=O)N2[C@H]1C(=O)O` [ampicillin]: the MIC in the assay with L. monocytogenes 677 (L. monocytogenes 677, diluted in TSB with 0.6% yeast extract, 18 h at 37 °C, absorbance at 600 nm) was 1 ^c μg/mL; in the assay with L. monocytogenes 677 (Listeria monocytogenes, 677, 18 h), 1 µg/mL (≈ 2.86 µM).

For the compound `CC[C@H]1OC(=O)[C@H](C)[C@@H](O[C@H]2C[C@@](C)(OC)[C@@H](O)[C@H](C)O2)[C@H](C)[C@@H](O[C@@H]2O[C@H](C)C[C@H](N(C)C)[C@H]2O)[C@](C)(O)C[C@@H](C)C(=O)[C@H](C)[C@@H](O)[C@]1(C)O` [erythromycin], the MIC was 1 µg/mL (≈ 1.36 µM) in [1] (Staphylococcus aureus, read-out: MIC) and 1 ^b μg/mL in assay [1].

With `C/C=C1\NC(=O)[C@H](C)NC(=O)[C@H](C(C)C)NC(=O)[C@H](NC(=O)[C@H](Cc2ccccc2)NC(=O)[C@@H](CC(C)C)NC(=O)[C@@H](Cc2ccccc2)NC(C)=O)[C@@H](C)OC1=O` [TL-119] (Ac-[dF][dL]F[d(aThr)]VA[Dhb]; ester 4-C), the MIC against S. xilosus MB5209 (18 h) was found to be 7.8 µg/mL (≈ 9.7 µM); against L. monocytogenes 677 (677, 18 h), 0.24 µg/mL (≈ 0.299 µM); in the assay with S. aureus 6538 (6538, 18 h) it was 0.24 µg/mL (≈ 0.299 µM); in assay [2] (methicillin-resistant, 18 h), 3.9 µg/mL (≈ 4.85 µM); in [3] (quinolone-resistant, 18 h), 0.9 µg/mL (≈ 1.12 µM); in assay [4] (macrolide-resistant, 18 h) it was 1.9 µg/mL (≈ 2.36 µM). In addition, the MIC was 0.24 µg/mL (≈ 0.299 µM) with S. aureus 6538p (6538p, 18 h) and 7.8 µg/mL (≈ 9.7 µM) in the assay on S. epidermidis RP206. For the same compound, the “antibacterial activity (in words)” value with E. coli ATCC 10536 was “lack of antibacterial activity”.

Turning to `CN[C@H](CC(C)C)C(=O)N[C@H]1C(=O)N[C@@H](CC(N)=O)C(=O)N[C@H]2C(=O)N[C@H]3C(=O)N[C@H](C(=O)N[C@H](C(=O)O)c4cc(O)cc(O)c4-c4cc3ccc4O)[C@H](O)c3ccc(c(Cl)c3)Oc3cc2cc(c3O[C@@H]2O[C@H](CO)[C@@H](O)[C@H](O)[C@H]2O[C@H]2C[C@](C)(N)[C@H](O)[C@H](C)O2)Oc2ccc(cc2Cl)[C@H]1O` [Vancomycin], the MIC against S. xilosus MB5209 (S. xilosus MB5209, 96-well, MH medium, ~5 × 10^4 CFU/well, 18 h at 37 °C, absorbance at 600 nm) is 0.5 ^a μg/mL; with S. xilosus MB5209 (Staphylococcus xylosus, MB5209, 18 h), 0.5 µg/mL (≈ 0.345 µM); against S. aureus 6538 (S. aureus 6538, 96-well, MH medium, ~5 × 10^4 CFU/well, 18 h at 37 °C, absorbance at 600 nm) it was 0.5 ^a μg/mL; against S. aureus 6538 (Staphylococcus aureus, 6538, 18 h), 0.5 µg/mL (≈ 0.345 µM); in [2] (Staphylococcus aureus, 18 h) it was 0.5 µg/mL (≈ 0.345 µM); in assay [2] (methicillin-resistant S. aureus, 96-well, MH medium, ~5 × 10^4 CFU/well, 18 h at 37 °C, absorbance at 600 nm), 0.5 ^a μg/mL. Besides, the MIC was 0.5 µg/mL (≈ 0.345 µM) in assay [3] (Staphylococcus aureus, 18 h); 0.5 ^a μg/mL in assay [3] (quinolone-resistant S. aureus, 96-well, MH medium, ~5 × 10^4 CFU/well, 18 h at 37 °C, absorbance at 600 nm); 0.5 µg/mL (≈ 0.345 µM) in assay [4] (Staphylococcus aureus, 18 h); 0.5 ^a μg/mL in assay [4] (macrolide-resistant S. aureus, 96-well, MH medium, ~5 × 10^4 CFU/well, 18 h at 37 °C, absorbance at 600 nm); 1 ^a μg/mL against S. aureus 6538p (S. aureus 6538p, 96-well, MH medium, ~5 × 10^4 CFU/well, 18 h at 37 °C, absorbance at 600 nm, lowest concentration that completely inhibited growth); 1 µg/mL (≈ 0.69 µM) in the assay with S. aureus 6538p (Staphylococcus aureus, 6538P, 18 h).
